These results are taken from US20070232577A1, “Synthetic pentacyclic triterpenoids and derivatives of betulinic acid and betulin” (Advanced Life Sciences, Inc., priority 2006, published 2007).

The test system of one data set is A-375 (melanoma). Description: MTS cell viability assay, A-375. Format: cell-based. The following applies: Homo sapiens, 72 h. The procedure:
(§1) All treatments were performed in triplicate. […] Cells were incubated at 37° C. for 72 h.
A general note: Tetrazolium assays rely on reduction of a dye to a coloured formazan, in cell work by metabolically active cells.

In a further data set the test system is LN-229 (glioblastoma). Kind of data set: MTS cell viability assay, LN-229. Format: cell-based. The following applies: Homo sapiens, 72 h. The procedure: as §1
For data set [1], the system named is OVCAR-3 (ovarian carcinoma). Description: MTS cell viability assay, OVCAR-3. The following applies: Homo sapiens, 72 h. Format: cell-based. As to the method:
as §1

In the next data set the test system is HT-29 (colon carcinoma). Description: MTS cell viability assay, HT-29. Format: cell-based. The following applies: Homo sapiens, 72 h. As to the method: as §1
A further data set relates to MCF-7 (breast carcinoma). Kind of data set: MTS cell viability assay, MCF-7. It is filed as cell-based. The following applies: Homo sapiens, MCF7, 72 h. The procedure: as §1
Data set [2] has as its system SK-MEL-2 (melanoma).
Protocol: (§2) Cells were plated, the evening before treatment, for each treatment on 96-well plates (1×10^4 cells/well) in 100 μL volume per well. Drug solutions were prepared by diluting each test compound in DSMO (10 mM) with the appropriate cell growth media for each individual cell line, or in “Universal Media” if several cell lines were to be assayed in parallel, immediately prior to cell treatment. Universal Media consisted of 5 mL sodium pyruvate (100×liquid stock, CellGro), 5 mL glucose (100×, 45% liquid stock, CellGro), 5 mL Penicillin/Streptomycin (100×liquid stock, CellGro), 10 mL sodium bicarbonate (50×liquid stock, CellGro), 25 mL Fetal Calf Serum, 1.25 mL insulin (4 mg/mL, Gibco) and 449 mL RPMI media with 2 mM glutamine for a total volume of 500 mL. Cells were treated by aspirating media from each well and adding 80 μL of each drug solution to the attached cells. All treatments were performed in triplicate. Growth media (80 μL) were added to 3 blank wells (no cells) to measure background from the growth media Growth media alone (no DMSO or test compond) was added to 2 wells containing cells to measure the baseline MTS activity and vehicle (DMSO) control solutions were also included to monitor basal toxicity from DMSO. Cells were incubated at 37° C. for 72 h. MTS reagent (per 96-well plate) were prepared by combining 2 mL of MTS working solution (Cell Titer AQueous Non-Radioactive Cell Proliferation Assay, Promega, cat#G1112), 100 μL of 0.92 mg/mL phenazine methosulfate/Dulbecco's PBS and 2.1 mL growth media. MTS reagent (40 μL) were added to each well and incubated at 37° C. for 1.5 to 4 h. Plates were gently shaken by hand until solution in each well appeared homogenous. Absorbances at 490 nm were measured on a plate reader at multiple time points following the addition of MTS reagent for each plate. Triplicate absorbance (490 nm) measurements were averaged following background (no cell) subtraction for each drug concentration. Percent Cell Viability was calculated for each drug concentration using the following equation: {[Absorbances(drug treated)]/[Absorbances(DMSO treated)]}×100%
(§3) Percent viability (y-axis) was plotted against drug concentration (x-axis) and the resulting graph was used to determine the 50% inhibitory concentration (IC50) for each drug.
In data set [3] the test system is Daoy (glioblastoma).
Protocol: as §2, §3
In data set [4] the test system is Daoy (glioblastoma). Kind of data set: MTS cell viability assay, Daoy. The following applies: Homo sapiens, Daoy, 72 h, read-out: IC50 Daoy.
Protocol: as §2, §3
For data set [5], the system named is SK-MEL-2 (melanoma). Description: MTS cell viability assay, SK-MEL-2. The following applies: Homo sapiens, SK-MEL-2, 72 h, read-out: IC50 SK-MEL-2.
Protocol: as §2, §3
Data set [6] concerns SK-MEL-2, A-375, Daoy, LN-229, OVCAR-3, HT-29, MCF-7 cell lines. It is filed as cell-based. The procedure:
as §1

Another data set relates to SK-MEL-2 cells. Description: Caspase activation assay, SK-MEL-2. It is filed as cell-based. The following applies: for caspase activating property compared with betulinic acid (1): SK-MEL-2, 5, 15, 50 μM, 2-24 h, absence of FBS. As to the method: All treatments were performed in duplicate. […] Cells were incubated at 37° C. for 8 h. Caspase assay reagent (per 96-well plate) was prepared according to manufacturer's instructions (Homogeneous Caspases Assay, fluorometric, Roche) by combining 6.3 mL Incubation Buffer with 0.7 mL of Substrate Stock Solution. Caspase assay reagent (70 μL) was added to each well; the plate was gently shaken by hand for 15-20 seconds and incubated at 37° C. for 4 h.
Fluorescent emission was measured at 535 nm on a plate reader using the “homogeneous caspase” program (excitation Wavelength=490 nm, emission wavelength=535 nm). Duplicate wells for each treatment were averaged following background (no cells) subtraction (emission 535 nm value from all experimental emission 535 nm values) for each drug concentration.
DMSO treatment represented baseline caspase activation in the absence of drug. The percent changes in caspase activity were plotted on the y-axis for each drug treatment.
Caspase activation assays were conducted to further characterize the mode of cell death. A treatment time and dose at which maximum caspase activation was observed prior to massive cell destruction would be indicative of apoptosis induction. SK-MEL-2 cells were treated with 5, 15, and 50 μM of the compound for 2, 4, 6, 8, 16, and 24 h in the absence of FBS (Fetal Bovine Serum).

The next data set relates to SK-MEL-2. Kind of data set: Annexin-V assay (apoptosis versus necrosis). It is filed as cell-based. The following applies: for selective apoptosis and dose dependence (in words): cell line not stated, above optimal dose cellular damage and non-apoptotic cell death. The procedure:
Cells were plated (8.75×10^5 cells/6 cm. diameter tissue culture plates), the evening before treatment, in 4 mL volume per plate. This cell density is equivalent to the cell density used in the MTS and Caspase assays (1×10^4 cells/well (96-well plate). Drug solutions were prepared, immediately prior to cell treatment, in the same as described for caspase assay
Growth media alone (no DMSO or drug) was added to a plate containing cells to measure the baseline-Annexin-V reactivity and vehicle (DMSO) alone control solutions were also prepared to monitor Annexin-V reactivity from DMSO. Cells were incubated at 37° C. for 8 h. Growth media (3 mL) was removed from each plate and added to a 15 mL conical tube containing 0.333 mL FCS (final FCS concentration of 10%). The media was saved to include any apoptotic/dead cells that may have detached from the plate during drug treatment. FCS was added to the media to prevent further cell damage and improve the efficiency of cell pelleting during subsequent centrifugation steps (empirical observation). Adherent cells were rinsed once with PBS and 1 mL of trypsin was added. Plates were rotated several times to assure coating of the entire surface with trypsin which was then removed. Plates were incubated at 37° C. for 4-5 min. Trypsinized cells were re-suspended in the saved media for each sample. Cell suspension was placed back into 15 mL tubes, which were then cooled on ice. Cells were re-suspended by pipetting 7-8 times. The tubes were centrifuged at 130×g for 5 min at 4° C. The resulting cell pellets were re-suspended in the ice cold 1 mL of 1× Nexin Buffer (Guava Nexin kit, Guava Technologies) and transferred to 1.5 mL conical microcentrifuge tubes to rinse cells with residual growth media. This procedure was repeated by centrifugation of cells at 130×g for 5 min, at 4° C. Re-suspension of the resulting cell pellet in 50 μL Nexin Staining Solution (Guava Nexin kit, Guava Technologies) was followed by incubation on ice, in the dark, for 20 min. Guava Samples were analyzed immediately on the Guava flow cytometer, using the Guava Nexin software package (see Guava user's manual and Guava Nexin kit protocol on data acquisition and analysis protocols).

Each structure is given as a SMILES string. Converted amounts (≈) assume the structure as drawn.

The term IC50 denotes the concentration needed to halve the response being measured. Turning to `C=C(C)[C@@H]1CC[C@]2(CNCC(=O)OC)CC[C@]3(C)[C@H](CC[C@@H]4[C@@]5(C)CC[C@H](OC(C)=O)C(C)(C)[C@@H]5CC[C@]43C)[C@@H]12` [Compound 72, methyl 2-(((1R,3aS,5aR,5bR,7aR,9S,1iaR,11bR,13aR,13bR)-9-acetoxy-5a,5b,8,8,11a-pentamethyl-1-(prop-1-en-2-yl)icosahydro-1H-cyclopenta[a]chrysen-3a-yl)methylamino)acetate], the IC50 in the data set with A-375 (melanoma) is 6 mg/L (≈ 10.8 µM); with LN-229 (glioblastoma) it was over 75 mg/L; in data set [1], 36 mg/L (≈ 64.8 µM); in the data set on HT-29 (colon carcinoma), over 75 mg/L; in the data set with MCF-7 (breast carcinoma) it was 75 mg/L (≈ 135 µM); in the data set with Daoy (glioblastoma) [4], 6 mg/L (≈ 10.8 µM). For the same compound, the concentration for half-maximal inhibition (IC50) in the data set with SK-MEL-2 (melanoma) [5] was 6 mg/L (≈ 10.8 µM). Also, the “improvement in cytotoxicity relative to betulinic acid 1 in SK-MEL-2” value in the data set with SK-MEL-2 (melanoma) [2] is on record as “greater than 5 fold”. Further, in the data set on Daoy (glioblastoma) [3], the “improvement in cytotoxicity relative to betulinic acid 1 in Daoy” value was “greater than 5 fold”.

For `C=C(C)[C@@H]1CC[C@]2(C(=O)O)CC[C@]3(C)[C@H](CC[C@@H]4[C@@]5(C)CC[C@H](OC(=O)/C=C/c6ccc(O)c(O)c6)C(C)(C)[C@@H]5CC[C@]43C)[C@@H]12` [Compound 25, (1R,3aS,5aR,5bR,7aR,9S,11aR,11bR,13aR, 13bR)-9-((E)-3-(3,4-dihydroxyphenyl)acryloyloxy)-5a,5b,8,8,11a-pentamethyl-1-(prop-1-en-2-yl)icosahydro-1H-cyclopenta[a]chrysene-3a-carboxylic acid], in the data set on SK-MEL-2 (melanoma) [2], the “improvement in cytotoxicity relative to betulinic acid 1 in SK-MEL-2” value is reported as “greater than 5 fold”.

Regarding `C=C(C)[C@@H]1CC[C@]2(CO)CC[C@]3(C)[C@H](CC[C@@H]4[C@@]5(C)C=C(C#N)C(=O)C(C)(C)[C@@H]5CC[C@]43C)[C@@H]12` [Compound 38, (1R,3aS,5aR,5bR,7aR,11aR,11bR,13aR,13bR)-3a-(hydroxymethyl)-5a,5b,8,8,11a-pentamethyl-9-oxo-1-(prop-1-en-2-yl)-2,3,3a,4,5,5a,5b,6,7,7a, 8,9,11a,11b,12,13,13a,13b-octadecahydro-1H-cyclopenta[a]chrysene-10-carbonitrile], the half-maximal inhibitory concentration (IC50) was determined as 6 mg/L (≈ 12.9 µM) in the data set with A-375 (melanoma); 6 mg/L (≈ 12.9 µM) in the data set with LN-229 (glioblastoma); 7 mg/L (≈ 15.1 µM) in data set [1]; 8 mg/L (≈ 17.3 µM) in the data set with HT-29 (colon carcinoma); 8 mg/L (≈ 17.3 µM) in the data set with Daoy (glioblastoma) [4]; 6 mg/L (≈ 12.9 µM) with SK-MEL-2 (melanoma) [5]. Besides, the “cytotoxic potency across the cell line panel (in words)” value in [6] was “potent across the entire cell line panel”. Besides, the “caspase activation in SK-MEL-2 (in words)” value with SK-MEL-2 cells (SK-MEL-2) is “activated caspases”. For the same compound, the “caspase activating property compared with betulinic acid (1)” value in the data set on SK-MEL-2 cells was “more robust caspase activating property than betulinic acid”. In addition, in the data set with SK-MEL-2 (SK-MEL-2), the “apoptosis versus necrosis by the Annexin assay (in words)” value is “inducing apoptosis over necrosis robustly”. In the data set with SK-MEL-2 (caspase and Annexin assays, SK-MEL-2), the “rank as apoptosis inducer within the collection (in words)” value is “most potent apoptosis inducer”.

For the compound `C=C(C)[C@@H]1CC[C@]2(C(=O)O)CC[C@]3(C)[C@H](CC[C@@H]4[C@@]5(C)CC[C@H](OC(=O)/C=C/c6ccc(OC(C)=O)c(OC(C)=O)c6)C(C)(C)[C@@H]5CC[C@]43C)[C@@H]12` [Compound 24, (1R,3aS,5aR,5bR,7aR,9S,11aR,11bR,13aR, 13bR)-9-((E)-3-(3,4-diacetoxyphenyl)acryloyloxy)-5a,5b,8,8,11a-pentamethyl-1-(prop-1-en-2-yl)icosahydro-1H-cyclopenta[a]chrysene-3a-carboxylic acid], the “improvement in cytotoxicity relative to betulinic acid 1 in SK-MEL-2” value in the data set with SK-MEL-2 (melanoma) [2] is given as “greater than 5 fold”.

As to `C=C(C)[C@@H]1CC[C@]2(CO)CC[C@]3(C)[C@H](CC[C@@H]4[C@@]5(C)CCC(NCCc6ccc(O)cc6)C(C)(C)[C@@H]5CC[C@]43C)[C@@H]12` (stereo partly drawn) [Compound 75, 4-(2-((1R,3aS,5aR,5bR,7aR,11aR,11bR,13aR,13bR)-3a-(hydroxymethyl)-5a,5b,8,8,11a-pentamethyl-1-(prop-1-en-2-yl)icosahydro-1H-cyclopenta[a]chrysen-9-ylamino)ethyl)phenol], in the data set with SK-MEL-2 cells, the “caspase activating property compared with betulinic acid (1)” value is given as “more robust caspase activating property than betulinic acid”. Also, the “selective apoptosis and dose dependence (in words)” value with SK-MEL-2 was “induced selective apoptosis at an optimal dose”.

Consider `C=C(C)[C@@H]1CC[C@]2(C(=O)O)CC[C@]3(C)[C@H](CC[C@@H]4[C@@]5(C)CCC(NCCNC(=O)OC(C)(C)C)C(C)(C)[C@@H]5CC[C@]43C)[C@@H]12` (stereo partly drawn) [Compound 79, (1R,3aS,5aR,5bR,7aR,11aR,11bR,13aR,13bR)-9-(2-(tert-butoxycarbonylamino)ethylamino)-5a,5b,8,8,11a-pentamethyl-1-(prop-1-en-2-yl)icosahydro-1H-cyclopenta[a]chrysene-3a-carboxylic acid], for which the “selective apoptosis and dose dependence (in words)” value in the data set with SK-MEL-2 was “induced selective apoptosis at an optimal dose”.

For `C=C(C)[C@@H]1CC[C@]2(CNCCO)CC[C@]3(C)[C@H](CC[C@@H]4[C@@]5(C)CC[C@H](O)C(C)(C)[C@@H]5CC[C@]43C)[C@@H]12` [Compound 69, (1R,3aS,5aR,5bR,7aR,9S,11aR,11bR,13aR,13bR)-3a-((2-hydroxyethylamino)methyl)-5a,5b,8,8,11a-pentamethyl-1-(prop-1-en-2-yl)icosahydro-1H-cyclopenta[a]chrysen-9-ol], the IC50 with A-375 (melanoma) is 4 mg/L (≈ 8.23 µM); in data set [1], under 10 mg/L; in the data set on HT-29 (colon carcinoma), 2 mg/L (≈ 4.12 µM); in the data set on MCF-7 (breast carcinoma) it was under 10 mg/L; in the data set on Daoy (glioblastoma) [4], under 2 mg/L; in the data set with SK-MEL-2 (melanoma) [5], 5 mg/L (≈ 10.3 µM). In data set [6], the “cytotoxic potency across the cell line panel (in words)” value was “potent across the entire cell line panel”. The “improvement in cytotoxicity relative to betulinic acid 1 in SK-MEL-2” value in the data set on SK-MEL-2 (melanoma) [2] was “greater than 5 fold”. The “improvement in cytotoxicity relative to betulinic acid 1 in Daoy” value with Daoy (glioblastoma) [3] was “greater than 5 fold”.

For `C=C(C)[C@@H]1CC[C@]2(COC3CCCCO3)CC[C@]3(C)[C@H](CC[C@@H]4[C@@]5(C)CC6=C(ON(O)C6)C(C)(C)[C@@H]5CC[C@]43C)[C@@H]12` (stereo partly drawn) [Compound 32, (1R,3aS,5aR,5bR,7aR,12aR,12bR,14aR,14bR)-1-isopropenyl-5a,5b,8,8,12a-pentamethyl-3a-[(tetrahydro-2H-pyran-2-yloxy)methyl]-1,2,3,3a,4,5,5a,5b,6,7,7a,8,11,12,12a,12b,13,14, 14a,14b-icosahydro-10H-cyclopenta[7,8]chryseno[3,2-d]isoxazol-10-ol], the half-maximal inhibitory concentration (IC50) in the data set with A-375 (melanoma) is 6 mg/L (≈ 10.6 µM); in the data set on LN-229 (glioblastoma), 6 mg/L (≈ 10.6 µM); in data set [1], 6 mg/L (≈ 10.6 µM); in the data set on HT-29 (colon carcinoma), 8 mg/L (≈ 14.1 µM); in the data set on MCF-7 (breast carcinoma) it was 6 mg/L (≈ 10.6 µM); in the data set on Daoy (glioblastoma) [4], 6 mg/L (≈ 10.6 µM). Moreover, the half-maximal inhibitory concentration (IC50) in the data set on SK-MEL-2 (melanoma) [5] came to 5 mg/L (≈ 8.81 µM). For the same compound, the “cytotoxic potency across the cell line panel (in words)” value in data set [6] is recorded as “potent across the entire cell line panel”. Also, in the data set with SK-MEL-2 cells, the “caspase activating property compared with betulinic acid (1)” value is “more robust caspase activating property than betulinic acid”. The “selective apoptosis and dose dependence (in words)” value with SK-MEL-2 is “induced selective apoptosis at an optimal dose”.
